Measured values taken from ChEMBL document CHEMBL3046075, “Synthesis and antibacterial activity of novel 7-haloanilino-8-nitrofluoroquinolone derivatives” (2012).
≈ marks a conversion by molar mass, not a printed value.

Tests used:
Staphylococcus aureus [1] = experiment: Antibacterial activity against resistant isolates of Staphylococcus aureus after 24 hr by two-fold serial dilution method; assay type: functional
Staphylococcus aureus [2] = experiment: Antibacterial activity against Staphylococcus aureus ATCC 6538 after 24 hr by two-fold serial dilution method; assay type: functional; settings: ATCC 6538, 24 h

Compound	MIC (Staphylococcus aureus [1]) [mg/L]	MIC (Staphylococcus aureus [2]) [mg/L]
O=C(O)c1cn(C2CC2)c2c([N+](=O)[O-])c(Nc3ccccc3F)c(F)cc2c1=O	106 (≈ 264 µM)	106 (≈ 264 µM)
O=C(O)c1cn(C2CC2)c2c([N+](=O)[O-])c(Nc3ccccc3)c(F)cc2c1=O	–	11.7 (≈ 30.5 µM)
O=C(O)c1cn(C2CC2)c2c([N+](=O)[O-])c(Nc3ccccc3Cl)c(F)cc2c1=O	6.7 (≈ 16 µM)	6.7 (≈ 16 µM)
O=C(O)c1cn(C2CC2)c2c([N+](=O)[O-])c(Nc3cccc(Cl)c3)c(F)cc2c1=O	7 (≈ 16.8 µM)	0.9 (≈ 2.15 µM)
O=C(O)c1cn(C2CC2)c2c([N+](=O)[O-])c(Nc3ccc(Cl)cc3)c(F)cc2c1=O	9.8 (≈ 23.5 µM)	6.7 (≈ 16 µM)
O=C(O)c1cn(C2CC2)c2c([N+](=O)[O-])c(Nc3ccc(F)c(F)c3F)c(F)cc2c1=O	9.8 (≈ 22.4 µM)	39 (≈ 89.2 µM)
O=C(O)c1cn(C2CC2)c2cc(N3CCNCC3)c(F)cc2c1=O [CIPROFLOXACIN]	1.4 (≈ 4.23 µM)	2.9 (≈ 8.75 µM)
